Laboratory results reported in ChEMBL document CHEMBL1201862, “PubChem BioAssay data set” (2004).
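Exposure lasted 48 hours, with cells grown in 96-well plates and compounds tested at five concentrations. The concentration for 50% growth inhibition is given as GI50.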 Activity calls are given as the source filed them. Rule as the data show it: active = GI50 up to about 1.1 µM and inactive = higher.

Legend:
Test in all cases: inhibition of tumour cell growth, NCI panel, 48 h
HCC 2998 = test system: HCC 2998
HL-60 = test system: HL-60
SF-295 = test system: SF-295
786-0 = test system: 786-0
OVCAR-8 = test system: OVCAR-8
SK-MEL-5 = test system: SK-MEL-5
A498 = test system: A498
SNB-75 = test system: SNB-75
HCT-15 = test system: HCT-15
SN12C = test system: SN12C
SNB-19 = test system: SNB-19
SF-539 = test system: SF-539
U-251 = test system: U-251
IGROV-1 = test system: IGROV-1
NCI-H522 = test system: NCI-H522
ACHN = test system: ACHN
BT-549 = test system: BT-549
A549 = test system: A549
HOP-92 = test system: HOP-92

| Compound | GI50 (HCC 2998) | GI50 (HL-60) | GI50 (SF-295) | GI50 (786-0) | GI50 (OVCAR-8) | GI50 (SK-MEL-5) | GI50 (A498) | GI50 (SNB-75) | GI50 (HCT-15) [µM] | GI50 (SN12C) | GI50 (SNB-19) | GI50 (SF-539) | GI50 (U-251) | GI50 (IGROV-1) | GI50 (NCI-H522) | GI50 (ACHN) | GI50 (BT-549) | GI50 (A549) | GI50 (HOP-92) |
| --- | --- | --- | --- | --- | --- | --- | --- | --- | --- | --- | --- | --- | --- | --- | --- | --- | --- | --- | --- |
| CN(C)Cc1cc(C(=O)/C=C/c2ccc(Cl)cc2)cc(CN(C)C)c1O | 18.7 µM (inactive) | 2.86 µM (inactive) | 13.3 µM (inactive) | 5.93 µM (inactive) | 7.59 µM (inactive) | 11.4 µM (inactive) | 12.7 µM (inactive) | 8.75 µM (inactive) | 15.9 | 10.8 µM (inactive) | 8.75 µM (inactive) | 19.3 µM (inactive) | 13.4 µM (inactive) | 12.5 µM (inactive) | 3.24 µM (inactive) | 4.04 µM (inactive) | 3.7 µM (inactive) | 8.73 µM (inactive) |  |
| COc1ccc2c3c1OC1C(=O)C=CC4(CC2)N(C)CCC314 (stereo not drawn) | 13.8 µM (inactive) |  | 38 µM (inactive) | 17.2 µM (inactive) | 22.5 µM (inactive) | 10.4 µM (inactive) | 13.9 µM (inactive) | 28.1 µM (inactive) | 18.9 | 21.4 µM (inactive) | 19.5 µM (inactive) |  | 19.5 µM (inactive) | 23.7 µM (inactive) | 11 µM (inactive) | 18.9 µM (inactive) | 23.6 µM (inactive) | 22.8 µM (inactive) | 22.7 µM (inactive) |
| Oc1ccc(Cc2nccc3cc(O)c(O)cc23)cc1O |  | 26.3 µM (inactive) | 37.2 µM (inactive) | 32.1 µM (inactive) | 45.7 µM (inactive) | 28.8 µM (inactive) | 45 µM (inactive) | 21 µM (inactive) | 57.7 | 29.9 µM (inactive) | 55.2 µM (inactive) | 40.4 µM (inactive) | 37.9 µM (inactive) | 33 µM (inactive) | 30.4 µM (inactive) | 88.1 µM (inactive) | 54.3 µM (inactive) | 54.3 µM (inactive) | 90.2 µM (inactive) |
| O=S(=O)(c1ccccc1)c1ccc(/N=N/O)nc1 | > 100 µM (inactive) | > 10 µM (inactive) | > 100 µM (inactive) | > 100 µM (inactive) | > 100 µM (inactive) | > 10 µM (inactive) | > 100 µM (inactive) | 62.2 µM (inactive) | > 100 | > 100 µM (inactive) | > 100 µM (inactive) | > 100 µM (inactive) | > 100 µM (inactive) | > 100 µM (inactive) | > 100 µM (inactive) | > 100 µM (inactive) | > 100 µM (inactive) | > 100 µM (inactive) |  |
| Cc1ccc(-n2nncc2[Si](C)(C)C)s1 | > 100 µM (inactive) |  | > 100 µM (inactive) | > 100 µM (inactive) | > 100 µM (inactive) | > 100 µM (inactive) | > 100 µM (inactive) |  | > 100 | > 100 µM (inactive) | > 100 µM (inactive) | > 100 µM (inactive) | > 100 µM (inactive) |  | > 100 µM (inactive) | > 100 µM (inactive) | > 100 µM (inactive) | > 100 µM (inactive) | > 100 µM (inactive) |
| CCOC(=O)c1[nH]cc(C)c1-c1cccn1-c1ccc(Cl)cc1[N+](=O)[O-] | 19.4 µM (inactive) |  | 28.2 µM (inactive) | 18.2 µM (inactive) | 20.8 µM (inactive) | 14.9 µM (inactive) | 35.3 µM (inactive) | 19.1 µM (inactive) | 32.1 | 24.7 µM (inactive) |  | 19.2 µM (inactive) | 15.1 µM (inactive) | 14.7 µM (inactive) | 14 µM (inactive) | 23.9 µM (inactive) | 27.2 µM (inactive) | 23 µM (inactive) | 17.9 µM (inactive) |
| O=S(=O)(O)n1ccnc1 |  | > 100 µM (inactive) | > 100 µM (inactive) | > 100 µM (inactive) | > 100 µM (inactive) | > 100 µM (inactive) | > 100 µM (inactive) | > 100 µM (inactive) | > 100 | > 100 µM (inactive) | > 100 µM (inactive) | > 100 µM (inactive) | > 100 µM (inactive) | > 100 µM (inactive) | > 100 µM (inactive) | > 100 µM (inactive) | > 100 µM (inactive) | > 100 µM (inactive) | > 100 µM (inactive) |
| COC(=O)CCC(C)[C@H]1CCC2C3C(C[C@H](OC(C)=O)[C@@]21C)[C@@]1(C)CCC2(C[C@H]1C[C@H]3OC(C)=O)OOC1(CCCCCCC1)OO2 (stereo partly drawn) |  | 4.3 µM (inactive) | 6.38 µM (inactive) | 6 µM (inactive) | 4.82 µM (inactive) | 6.5 µM (inactive) | > 100 µM (inactive) | 6.35 µM (inactive) | 5.52 | 23.3 µM (inactive) | > 100 µM (inactive) | 18.6 µM (inactive) | 5.86 µM (inactive) | 6.37 µM (inactive) | 10.9 µM (inactive) | 4.09 µM (inactive) | 9.14 µM (inactive) | 4.56 µM (inactive) | 7.55 µM (inactive) |
| COc1ccc(OC2OC(CO)C(O)C(O)C2O)cc1 (stereo not drawn) | > 100 µM (inactive) | > 100 µM (inactive) | > 100 µM (inactive) | > 100 µM (inactive) | > 100 µM (inactive) | > 100 µM (inactive) | > 100 µM (inactive) | > 100 µM (inactive) | > 100 | > 100 µM (inactive) | > 100 µM (inactive) | > 100 µM (inactive) | > 100 µM (inactive) | > 100 µM (inactive) | > 100 µM (inactive) | > 100 µM (inactive) | > 100 µM (inactive) | > 100 µM (inactive) |  |
| CCCCCCCC/C=C(\Br)C(O)C(Br)Br (stereo not drawn) | 18.8 µM (inactive) |  | 18 µM (inactive) | 18.5 µM (inactive) | 23.4 µM (inactive) | 17.9 µM (inactive) | 31 µM (inactive) | 36 µM (inactive) | 20.6 | 17.3 µM (inactive) | 31.8 µM (inactive) |  | 30 µM (inactive) | 24.7 µM (inactive) | 19.1 µM (inactive) | 22.3 µM (inactive) | 22.4 µM (inactive) | 31.4 µM (inactive) | 20.9 µM (inactive) |
| O=C(O)c1cccc(/C=C/c2ccccc2)c1 |  |  | > 100 µM (inactive) | > 100 µM (inactive) | > 100 µM (inactive) | > 100 µM (inactive) | > 100 µM (inactive) | > 100 µM (inactive) | > 100 | > 100 µM (inactive) | > 100 µM (inactive) | > 100 µM (inactive) | > 100 µM (inactive) | > 100 µM (inactive) | > 100 µM (inactive) | > 100 µM (inactive) | > 100 µM (inactive) | > 100 µM (inactive) | > 100 µM (inactive) |
| CC1(C)[N+]([O-])=[N+]([O-])C1(C)O (stereo not drawn) | > 100 µM (inactive) | > 100 µM (inactive) |  | > 100 µM (inactive) | > 100 µM (inactive) | > 100 µM (inactive) | > 100 µM (inactive) | > 100 µM (inactive) | > 100 | > 100 µM (inactive) | > 100 µM (inactive) | > 100 µM (inactive) | > 100 µM (inactive) | > 100 µM (inactive) | > 100 µM (inactive) |  | > 100 µM (inactive) | > 100 µM (inactive) |  |
